{
  "source": "patent US20050181516A1",
  "about": "“Bioequivalence determination using expression profiling” (priority 2002, published 2005)",
  "key": {"[1]": {"tested_on": "psoriasis", "assay": "4 weeks clinical study of oral ASM981 in psoriatic patients", "format": "in vivo, human", "conditions": "8 ASM981-treated patients, oral 60 mg/day (30 mg b.i.d.)", "method": "A clinical study was initiated with a standardized oral formulation of ASM981 (pimecrolimus) to treat psoriatic patients. The purpose of this study was both to investigate the nature of the alteration in gene expression profiles caused by the administration of a standardised oral formulation of pimecrolimus and to produce the necessary data to allow the bioequivalence of other pharmaceutically equivalent oral formulations of pimecrolimus to be tested. The dose used was 60 mg/day, given as 30 mg twice a day (b.i.d.). To make this dose the […] tablets were cut in half using a special cutter (Tablettenteiler NR.96) so as to obtain 30 mg of ASM981 or a matched amount of placebo. ASM981 was evaluated as treatment for psoriasis using an oral dose of 60 mg (30 mg b.i.d) during a 4 weeks clinical study. The oral formulation used was a highly standardized oral dosage form that could be produced in large amounts and with a highly uniform composition, this was oral formulation A. The cohort included 10 patients; 8 received oral formulation A and 2 received a placebo. Blood samples were collected before the first administration to establish the gene expression baseline and on days 13 or 14 after treatment with ASM981 or placebo and submitted to gene expression analysis in order to gain insights into the mechanisms of action of the compound."}, "[2]": {"tested_on": "contact dermatitis", "conditions": "topical application and oral route; cited from earlier work"}, "[3]": {"tested_on": "atopic dermatitis or psoriasis", "conditions": "topical formulation; cited from earlier work"}, "[4]": {"tested_on": "reperfusion after ischemia in the brain", "conditions": "in vivo; cited from earlier work"}, "[5]": {"tested_on": "T cells and mast cells", "conditions": "in vitro; cited from earlier work"}},
  "data": [
    {"smiles": "CC[C@@H]1/C=C(\\C)C[C@H](C)C[C@H](OC)[C@H]2O[C@@](O)(C(=O)C(=O)N3CCCC[C@H]3C(=O)O[C@H](/C(C)=C/[C@@H]3CC[C@H](Cl)[C@H](OC)C3)[C@H](C)[C@@H](O)CC1=O)[C@H](C)C[C@@H]2OC", "note": "[ASM981, 33-Epichloro-33-desoxy-ascomycin]", "values": [
      {"measurement": "psoriasis (clinical data)", "setting": "[1]", "value": "reduction of psoriasis"},
      {"measurement": "efficacy in animal models of contact dermatitis", "setting": "[2]", "value": "effective"},
      {"measurement": "outcome of clinical trials in atopic dermatitis or psoriasis", "setting": "[3]", "value": "clinical regression"},
      {"measurement": "anti-inflammatory properties in reperfusion after ischemia in the brain", "setting": "[4]", "value": "successfully tested"},
      {"measurement": "IgE promoter activity", "setting": "[5]", "value": "decrease"},
      {"measurement": "T cell activation and proliferation", "setting": "[5]", "value": "decrease"},
      {"measurement": "inflammatory mediators release", "setting": "[5]", "value": "impaired"}
    ]}
  ]
}
